Reference: PubChem BioAssay AID179 (DTP/NCI, 2004)
Active and inactive are the calls of the source.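 How the source made its calls: active means compounds giving half or more protection of infected cells from virus-caused growth loss, again on retest; inactive means the rest.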

Test system: CEM cells HIV-1 protection, formazan growth assay
Assay: NCI AIDS Antiviral Assay
Settings: for IC50: measured here: growth of uninfected CEM cells
Method in brief: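 Human CEM cells, uninfected and HIV-1-infected, received five drug concentrations, and growth was read by soluble formazan assay. Compounds giving at least 50% protection were retested; reproducible 100% protection defined confirmed active.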

| Structure (SMILES) | outcome | EC50 [µM] | IC50 [µM] |
| --- | --- | --- | --- |
| Nc1cccc(N=Nc2c(S(=O)(=O)O)cc3cc(Nc4ccc5c(O)c(N=Nc6cccc(N)c6)c(S(=O)(=O)O)cc5c4)ccc3c2O)c1 | inactive | – | – |
| Nc1nc2c(ncn2C2CCC(CO)O2)c(=O)n1C(=O)c1ccccc1 (stereo not drawn) | – | 37.2 | > 100 |
| CN(CC(=O)O)S(=O)(=O)c1ccc(Cl)cc1 | inactive | – | – |
| O=C(C[P+](c1ccccc1)(c1ccccc1)c1ccccc1)c1ccc([N+](=O)[O-])cc1 | – | > 200 | 19.1 |
| CCOC(=O)CC(C#N)(CC(=O)OCC)C(=O)OCC | inactive | – | – |
| COc1cc(C)c2c(=O)c3ccccc3n(C)c2c1 | – | 2.82 | 30.2 |
| Nc1[nH]c(=S)c2c(N)n[nH]c2c1C(=O)Nc1ccccc1 | – | > 200 | 91.2 |
| O=C1OC(=O)C(=C\c2ccc3c(c2)OCO3)/C1=C/c1ccc2c(c1)OCO2 | inactive | – | – |
| N#CC(C#N)=Cn1c(=S)[nH]c2ccccc21 | – | > 200 | > 200 |
| Nc1nc[n+](Cc2ccccc2CCO)c2nc[nH]c12 | – | > 37.2 | > 37.2 |
| COc1cc2c3c(c1)SC(c1ccccc1)C(=O)N3CCN2 (stereo not drawn) | – | > 200 | 14.1 |
| Cc1nc2c(o1)C(=Nc1ccc(I)cc1)c1ccccc1C2=Nc1ccc(I)cc1 | inactive | – | – |
| CC1=NC(=O)C(C)(c2ccccc2)N1CCc1ccccc1 (stereo not drawn) | – | > 200 | 45.7 |
| CSC(SC)=C1C(=O)NN=C1C | – | > 200 | > 200 |
| COc1ccc(I)c(CCC(C(=O)O)C2=CCC3(CC2)OCCO3)c1 (stereo not drawn) | – | > 145 | > 145 |
| CCOC(=O)c1nc2ccccc2nc1Nc1ccc(Cl)c(Cl)c1 | – | 151 | > 200 |

| Structure (SMILES) | outcome | EC50 [µM] | IC50 [µM] |
| --- | --- | --- | --- |
| COc1cccc(CC2NCCc3c2[nH]c2ccccc32)c1 (stereo not drawn) | – | > 251 | 46.8 |
| CC(=O)Oc1cc(/C=C(\C#N)C(=O)NCCCCCNC(=O)/C(C#N)=C/c2cc(OC(C)=O)c(OC(C)=O)c(OC(C)=O)c2)cc(OC(C)=O)c1OC(C)=O | – | > 200 | 27.5 |
| CCC[CH2][Sn]([CH2]CCC)([O]C(=O)c1cccc(F)c1F)[O][Sn]([CH2]CCC)([CH2]CCC)[O]C(=O)c1cccc(F)c1F | – | > 6.61 | 4.79 |
| CCC1S(=O)(=O)OCCOS1(=O)=O | – | > 1070 | 64.6 |
| CC(C)(Oc1ccc(/C=C/C(=O)c2ccc(Cl)cc2)cc1)C(=O)Nc1c(Cl)cccc1Cl | – | > 14.8 | > 14.8 |
| CCNC(=S)N/N=C(/C)c1cccc(/C(C)=N\NC(=S)NCC)n1 | – | > 200 | 2.19 |
| OCC1C(CO)C2CC1C1N=NN(c3ccccc3)C21 (stereo not drawn) | – | > 324 | > 324 |
| CC(C)(Br)C(=O)C(Br)Br | – | > 200 | 5.25 |
| CCOC(=O)CC(O)(c1ccccc1)c1ccccc1 | – | > 10 | > 10 |
| O=C1Nc2ccccc2/C1=N/N1CCCCCC1 | – | > 200 | 97.7 |
| COc1ccc(C(=O)CCC2(C)OCCO2)cc1OC | – | > 646 | 479 |
| Cc1nc2cc(Nc3ccccc3C(=O)O)ccc2s1 | – | > 631 | 158 |
| OCC1OC(n2cnc3cncnc32)CC1O (stereo not drawn) | inactive | – | – |
| O=C(Nc1ccc(I)cc1)c1ccccc1[Se][Se]c1ccccc1C(=O)Nc1ccc(I)cc1 | – | > 4.68 | > 4.68 |
| COc1ccc(OC)c(C(=O)/C=C\C(=O)O)c1 | – | > 219 | 24.5 |
| O=C1CC2C(=O)C1C(C(=O)O)C2C(=O)O (stereo not drawn) | – | > 1170 | > 1170 |
